The term pIC50 denotes the IC50 on a negative log10 scale, so that one unit is a factor of ten. By IC50 is commonly meant the concentration needed to halve the response being measured.

The values that follow come from PubChem BioAssay AID624167 (Sanford-Burnham Center for Chemical Genomics, 2012).

Assay [1] relates to PEG-3. Nature of the assay: Peg3 promoter luciferase inhibitors, potency, dose response, cell-based, HeLa, CREF/GAPDH counter-screen panel (AID 624167). To be noted: HeLa PEG-Prom luciferase reporter, overnight, CREF/GAPDH counter-screens. (A counterscreen serves to expose hits that act by an unwanted route or on another target.)
The subject of the next assay is Rat fibroblasts (CREF). The assay is described as above. Conditions: CREF/GAPDH counter-screens.
The target in assay [2] is PEG-3 (UniProt Q6IN02). Described as above. To be noted: HeLa PEG-Prom luciferase reporter, overnight, CREF/GAPDH counter-screens, mean of runs. (In general: A reporter such as luciferase makes a cellular process visible.)
Assay in assay [3]: as above
To be noted: CREF/GAPDH counter-screens; GAPDH; mean of runs.

The subject of a further assay is GAPDH. The assay is described as above. To be noted: CREF/GAPDH counter-screens.
Where [4] appears, read: run 1, dose range 1, individual replicate IC50 per panel.
Where [5] appears, read: run 2, dose range 1, individual replicate IC50 per panel.

Each structure is given as a SMILES string. pIC50: −log10 of the molar value. Activity calls are given as the source filed them.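 Rule for the calls: active = mean IC50 for reducing PEG3 promoter reporter signal at or below a set limit, with IC50 above the limit in both counter screens; inactive = the rest, including counter screen hits.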

PEG-3 (UniProt Q6IN02), sequence (Q6IN02 whole entry, looked up): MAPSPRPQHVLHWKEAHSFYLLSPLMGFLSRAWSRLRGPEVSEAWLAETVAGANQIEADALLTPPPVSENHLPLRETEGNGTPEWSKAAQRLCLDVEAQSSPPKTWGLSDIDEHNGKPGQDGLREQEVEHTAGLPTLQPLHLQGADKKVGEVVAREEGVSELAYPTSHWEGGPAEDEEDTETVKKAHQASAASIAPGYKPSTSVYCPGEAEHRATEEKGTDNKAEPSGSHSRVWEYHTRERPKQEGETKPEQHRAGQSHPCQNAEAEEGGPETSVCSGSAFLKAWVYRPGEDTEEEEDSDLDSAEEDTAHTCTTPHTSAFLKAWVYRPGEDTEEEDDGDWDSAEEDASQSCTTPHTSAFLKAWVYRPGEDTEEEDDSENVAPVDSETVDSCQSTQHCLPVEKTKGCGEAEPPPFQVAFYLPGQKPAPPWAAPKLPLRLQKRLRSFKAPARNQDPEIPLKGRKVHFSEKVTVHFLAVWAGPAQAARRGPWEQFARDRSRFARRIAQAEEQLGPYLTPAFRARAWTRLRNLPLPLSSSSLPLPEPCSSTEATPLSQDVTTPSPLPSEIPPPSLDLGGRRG

As to `Cc1ccc(OCC(=O)c2cc(C)n(-c3ccccc3)c2C)c([N+](=O)[O-])n1`, the pIC50 with PEG-3 [1] (setting [4]) is 6.16; in the assay with PEG-3 [1] (setting [5]) it was under 4.00; with Rat fibroblasts (CREF) (setting [4]), under 4.00; with Rat fibroblasts (CREF) (setting [5]) it was under 4.00; in assay [3], 5.26; with GAPDH (setting [4]) it was 5.58. In the assay on GAPDH (setting [5]), this compound gave a negative logarithm of the IC50 (pIC50) of 5.08. The IC50 with Rat fibroblasts (CREF) (mean of runs) was > 100 µM (inactive). On PEG-3 [2], the IC50 entry was “inactive”.
As to `Cc1cc(C(=O)Nc2cccc(C(=O)O)c2)oc1C`, the pIC50 in the assay with PEG-3 [1] (setting [4]) is 5.17; with PEG-3 [1] (setting [5]), 4.95; in the assay with Rat fibroblasts (CREF) (setting [4]), under 4.00; in the assay on Rat fibroblasts (CREF) (setting [5]) it was under 4.00; at PEG-3 [2] it was 5.05; in assay [3], 4.95. The pIC50 is 5.18 in the assay with GAPDH (setting [4]) and 4.80 in the assay with GAPDH (setting [5]). Also, the IC50 in the assay with Rat fibroblasts (CREF) (mean of runs) was > 100 µM (inactive).
For the compound `Cc1cc(C)c(C)c(S(=O)(=O)N2CCN(C(=O)c3cc(=O)[nH]c4ccccc34)CC2)c1C`, the negative logarithm of the IC50 (pIC50) is 4.87 in the assay with PEG-3 [1] (setting [4]); 5.30 in the assay on PEG-3 [1] (setting [5]); under 4.00 in the assay with Rat fibroblasts (CREF) (setting [4]); 4.99 in the assay on Rat fibroblasts (CREF) (setting [5]); 5.03 at PEG-3 [2]; 4.60 with GAPDH (setting [4]). In the assay with GAPDH (setting [5]), the pIC50 was 4.43. For the same compound, the IC50 in the assay with Rat fibroblasts (CREF) (mean of runs) is 55.2 µM (inactive). The IC50 entry in assay [3] was “inactive”.
In the case of `CC(=O)OC1(C)CC(C)C(=O)C(C(O)CC2CC(=O)NC(=O)C2)C1` (centres undefined), the pIC50 was 6.66 in the assay on PEG-3 [1] (setting [4]); 6.41 in the assay with PEG-3 [1] (setting [5]); over 6.70 with Rat fibroblasts (CREF) (mean of runs); over 6.70 in the assay on Rat fibroblasts (CREF) (setting [4]); over 6.70 in the assay with Rat fibroblasts (CREF) (setting [5]); 6.52 at PEG-3 [2]. Moreover, the pIC50 (in assay [3]; in the assay with GAPDH (setting [4]); with GAPDH (setting [5])) was over 6.70 in each case.
On to `C=C1CC2(OC1=O)c1ccccc1CCc1ccccc12`, for which the pIC50 was 5.24 in the assay with PEG-3 [1] (setting [4]); 5.40 in the assay on PEG-3 [1] (setting [5]); 5.10 in the assay on Rat fibroblasts (CREF) (mean of runs); 5.12 in the assay on Rat fibroblasts (CREF) (setting [4]); 5.08 in the assay with Rat fibroblasts (CREF) (setting [5]); 5.32 at PEG-3 [2]. In addition, the figures for the pIC50 (in assay [3]; with GAPDH (setting [4]); in the assay on GAPDH (setting [5])) were 4.86, 4.82 and 4.90, respectively.
Take `O=C1C=CC(=O)N1c1ccc(-c2nc3ccccc3o2)cc1`: the negative logarithm of the IC50 (pIC50) was 4.95 in the assay on PEG-3 [1] (setting [4]); 5.10 in the assay with PEG-3 [1] (setting [5]); 4.89 in the assay on Rat fibroblasts (CREF) (mean of runs); 5.26 with Rat fibroblasts (CREF) (setting [4]); 4.70 in the assay with Rat fibroblasts (CREF) (setting [5]); 5.01 on PEG-3 [2]. Further, the pIC50 in the assay on GAPDH (setting [4]) was 4.38; in the assay with GAPDH (setting [5]), 4.45. Besides, the IC50 result in assay [3] is “inactive”.
`COC(=O)C1C=CC(OC2OC(COC(C)=O)C(OC(C)=O)C(OC(C)=O)C2OC(C)=O)n2c(=O)n(-c3ccccc3)c(=O)n21` (centres undefined): the pIC50 in the assay with PEG-3 [1] (setting [4]) is 4.99; in the assay on PEG-3 [1] (setting [5]) it was 5.09; in the assay on Rat fibroblasts (CREF) (mean of runs) it was 5.09; with Rat fibroblasts (CREF) (setting [4]) it was 5.17; in the assay on Rat fibroblasts (CREF) (setting [5]), 5.03; on PEG-3 [2] it was 5.04. Moreover, the results for the pIC50 (in assay [3]; with GAPDH (setting [4]); in the assay with GAPDH (setting [5])) were 4.73, 4.71 and 4.75, respectively.
`O=C(N/N=C/c1sc(N2CCOCC2)nc1-c1ccccc1)c1cccc(S(=O)(=O)N2CCCC2)c1`: the pIC50 with PEG-3 [1] (setting [4]) is 5.23; with PEG-3 [1] (setting [5]) it was 5.30; in the assay with Rat fibroblasts (CREF) (setting [4]), under 4.00; with Rat fibroblasts (CREF) (setting [5]) it was 5.10; on PEG-3 [2], 5.26; in the assay with GAPDH (setting [4]) it was 4.72. In the assay with GAPDH (setting [5]), this compound had a pIC50 of 4.38. For the same compound, the IC50 in the assay on Rat fibroblasts (CREF) (mean of runs) was 54 µM (inactive). The IC50 entry in assay [3] is “inactive”.
With `COCCCNC(=O)c1ccc(Cn2c(=O)c3ccccc3n(Cc3ccccc3C#N)c2=O)cc1`, the negative logarithm of the IC50 (pIC50) in the assay with PEG-3 [1] (setting [4]) was 5.39; in the assay with PEG-3 [1] (setting [5]), 5.37; with Rat fibroblasts (CREF) (setting [4]), under 4.00; in the assay with Rat fibroblasts (CREF) (setting [5]) it was under 4.00; at PEG-3 [2], 5.38; with GAPDH (setting [4]), under 4.00. For the same compound, the pIC50 in the assay with GAPDH (setting [5]) is under 4.00. The IC50 (in the assay with Rat fibroblasts (CREF) (mean of runs); in assay [3]) was > 100 µM (inactive) in each case.
Turning to `COc1cc(OC)c2cc(C(=O)N/N=C/c3ccccc3O)[nH]c2c1`, the negative logarithm of the IC50 (pIC50) with PEG-3 [1] (setting [4]) is 5.31; in the assay with PEG-3 [1] (setting [5]), 5.41; with Rat fibroblasts (CREF) (mean of runs), 4.54; with Rat fibroblasts (CREF) (setting [4]), 4.61; in the assay on Rat fibroblasts (CREF) (setting [5]), 4.48; on PEG-3 [2], 5.35. Besides, the pIC50 was 4.12 in the assay on GAPDH (setting [4]) and 4.29 in the assay with GAPDH (setting [5]). Also, the IC50 entry in assay [3] was “inactive”.
`Cc1cc(NC(c2ccc(Cl)cc2)c2ccc3cccnc3c2O)no1` (centres undefined): the pIC50 with PEG-3 [1] (setting [4]) was 5.14; with PEG-3 [1] (setting [5]), 6.33; in the assay with Rat fibroblasts (CREF) (setting [4]), under 4.00; in the assay with Rat fibroblasts (CREF) (setting [5]) it was 4.26; at PEG-3 [2] it was 5.42; in the assay on GAPDH (setting [4]), under 4.00. This compound also gave a pIC50 in the assay on GAPDH (setting [5]) of under 4.00. For the same compound, the IC50 in the assay with Rat fibroblasts (CREF) (mean of runs) is 77.2 µM (inactive); in assay [3] it was > 100 µM (inactive).
